Results on twelve molecules are retold here after US10597396B2, “Beta-lactamase inhibitors” (Novartis AG, priority 2016, dated 2020).

Where two headings read alike, the source gives them in different places.

What all share (format): cell-based
Test [1] concerns Enterobacter cloacae NB25055 (CMY-2). Kind of test: Potentiation of beta-lactam MIC in beta-lactam resistant clinical isolate. As to conditions: read-out: Activity (MIC) of piperacillin alone. On the procedure:
(§1) MICs were determined by the broth microdilution method in accordance with Clinical and Laboratories Institute (CLSI) guidelines. In brief, fresh overnight bacterial cultures were suspended in sterile saline, and adjusted to a 0.5 McFarland turbidity standard. Bacterial suspensions were then diluted in cation adjusted Mueller-Hinton Broth (MHB II; BBL) to yield a final inoculum of approximately 5×10^5 colony-forming units (CFU)/mL. A master plate of antibiotics was prepared at a concentration equivalent to hundred-fold the highest desired final concentration in 100% dimethyl sulfoxide (DMSO). The master antibiotic plate was then diluted by serial twofold dilution with a multichannel pipette. The resulting dilution series of compounds were diluted 1:10 with sterile water or a solution of beta-lactamase inhibitor prepared at a concentration equivalent to eleven-fold the desired final concentration in deionized water leading to a 10% DMSO final concentration. A volume of 10 μL of the drug dilution series was transferred to 96-well assay plates. Assay plates were inoculated with 90 μL of bacterial suspensions and incubated at 35° C. for 20 hrs. The assay plates were read using a microtiter plate reader (Molecular Devices) at 600 nm as well as by visual observation with a reading mirror. The lowest concentration of the compound that prevented visible growth was recorded as the MIC. Performance of the assay was monitored by testing aztreonam against laboratory quality control strains in accordance with guidelines of the CLSI.
(§2) Synergy or potentiation of beta-lactam antibiotics through inhibition of […] was assessed against an isogenic panel of E. coli strains, each expressing a unique beta-lactamase, and against clinical strains.

For test [2], the system named is K. pneumoniae NB29082 (KPC-2). The test is described as above. As to conditions: Klebsiella pneumoniae, read-out: Activity (MIC) of piperacillin alone. As for the experimental part: as §1, §2
Another test relates to S. aureus NB01437 (BLA+). Described as above. As to conditions: Staphylococcus aureus, read-out: Activity (MIC) of piperacillin alone. On the procedure: as §1, §2
The subject of test [3] is K. pneumoniae NB29323 (CTX-M-15, OXA-48, VEB-1). The description is as above. The settings on record: Klebsiella pneumoniae, read-out: Activity (MIC) of aztreonam alone. On the procedure: as §1, §2
A further test deals with E. coli (OXA-18). As to the kind of experiment: microbe, parasite or virus in culture. As to conditions: for MIC: Escherichia coli. As for the experimental part:
as §1, with “MIC.” for “MIC. Performance of the assay was monitored by testing aztreonam against laboratory quality control strains in accordance with guidelines of the CLSI.”
as §2
(§3) Construction of E. coli isogenic strains, NB27273-CDY0105 (OXA-18) and NB27273-CDY0048 (TEM-10). […] The gene encoding OXA-18 was then digested with XhoI and EcoRI and inserted into this vector, from which the gene for GIM-1 had been removed with XhoI and EcoRI.
These final vectors for expression of OXA-18 and TEM-10 were transformed into BW25113 pspB to generate strains NB27273-CDY0105 (expressing OXA-18) and NB27273-CDY0048 (expressing TEM-10).

In test [4] the test system is E. coli ATCC 25922, K. pneumoniae ATCC 43816, P. aeruginosa ATCC 27853. Kind of test: Direct antibacterial activity of BLIs, summary of Table A in words. The settings on record: BLI alone; statement on Table A. As for the experimental part: as §1, with “A volume of 10 μL of the drug dilution series was transferred to 96-well assay plates. Assay plates were inoculated with 90 μL of bacterial suspensions and incubated at 35° C. for 20 hrs.” left out

In a further test the test system is E. coli (CTX-M-15). As to the kind of experiment: microbe, parasite or virus in culture. The settings on record: for MIC: Escherichia coli. As for the experimental part:
as §1, with “MIC.” for “MIC. Performance of the assay was monitored by testing aztreonam against laboratory quality control strains in accordance with guidelines of the CLSI.”
as §2
(§4) Strain NB27273 (BW25113 pspB::Km^r) was obtained from the Keio transposon insertion collection. The strain has the pspB gene replaced by a kanamycin resistance marker (BW25113 pspB::Km^r). This strain was cured of the transposon in pspB via FLP recombinase using published methodology. The resulting strain, BW25113 pspB, was used as a host for multicopy vectors expressing key beta-lactamases. Multicopy plasmids directing constitutive expression of beta-lactamases were established as follows: Synthetic, codon optimized genes encoding E. coli KPC-2, SHV-12 and CTX-M-15 beta-lactamases were made by DNA2.0 (Palo Alto, Calif.). Each of the synthetic fragments were designed to contain NotI and NcoI restriction sites at their termini, allowing ligation into a NotI/NcoI digested pET28a(+) derivative for protein expression. […] The codon optimized nucleotide sequences and relevant primer recognition information is shown below:
(§5) The PCR products were then digested with XhoI and EcoRI and ligated into similarly digested plasmid pAH63-pstS(BlaP). […] Therefore, expression of beta-lactamases from pAH63-pstS(BlaP) based constructs is constitutive and the signal sequence is provided to direct these proteins to the periplasm. […] These fragments were then digested with XbaI and EcoRI, and each was inserted into pBAD18-kan that had been digested with the same enzymes to generate multicopy vectors expressing KPC-2, SHV-12 and CTX-M-15, respectively. These vectors were transformed into BW25113 pspB to generate strains NB27273-CDY0033 (expressing KPC-2), NB27273-CDY0030 (expressing SHV-12), NB27273-CDY0034 (expressing CTX-M-15) and NB27273-CDY0036 (expressing AmpC). The pBAD18-kan vector also contains the TEM promoter region and signal sequence, (but lacks any intact beta-lactamase genes) and was transformed into BW25113 pspB using standard protocols to generate the control strain NB27273-CDY0026.

In another test the test system is E. coli (KPC-2). Kind of test: microbe, parasite or virus in culture. The settings on record: for MIC: Escherichia coli. As for the experimental part:
as §1, with “MIC.” for “MIC. Performance of the assay was monitored by testing aztreonam against laboratory quality control strains in accordance with guidelines of the CLSI.”
as §2, §4, §5

The next test deals with E. coli (SHV-12). Kind of test: microbe, parasite or virus in culture. The settings on record: for MIC: Escherichia coli. On the procedure: as §1, with “MIC.” for “MIC. Performance of the assay was monitored by testing aztreonam against laboratory quality control strains in accordance with guidelines of the CLSI.”
as §2, §4, §5

Another test has as its system E. coli (TEM-10). Kind of test: microbe, parasite or virus in culture. As to conditions: for MIC: Escherichia coli. As for the experimental part:
as §1, with “MIC.” for “MIC. Performance of the assay was monitored by testing aztreonam against laboratory quality control strains in accordance with guidelines of the CLSI.”
as §2, §3
From this template DNA, three fragments were generated by PCR using the following primer pairs;
This fragment was then digested with XbaI and EcoRI and inserted into pBAD-kan which was also cut with the same enzymes. […]

For the next test, the system named is E. coli (AmpC). Kind of test: microbe, parasite or virus in culture. As to conditions: for MIC: Escherichia coli. On the procedure: as §1, §2
The gene encoding AmpC was PCR amplified from the genome of strain P. aeruginosa PAO1 (NB52019) (GenBank ID U5R279) using primer pair E252 (gccCTCGAGggcgaggccccggcggatcgc) (SEQ ID NO: 17) and E253 (tgaGAATTCtcagcgcttcagcggcacct) (SEQ ID NO: 18).
The PCR products were then digested with XhoI and EcoRI and ligated into similarly digested plasmid pAH63-pstS(BlaP). Plasmid pAH63-pstS(BlaP) is a derivative of plasmid pAH63 (J Bacteriol: 183(21): 6384-6393) made by cloning the TEM-1 (bla) promoter and signal peptide encoding region from plasmid pBAD (J Bacteriol. 1995 July 177(14):4121-30) into plasmid pAH63. This fragment was PCR amplified from pBAD using primer pair E192 (ttcaCTGCAGtgaacgttgcgaagcaacggC) (SEQ ID NO:19) and E194 (TCGAggatcctcgagagcaaaaacaggaaggcaaaatgccg) (SEQ ID NO:20), digested with PstI and BamHI and inserted into similarly digested plasmid pAH63. Therefore, expression of beta-lactamases from pAH63-pstS(BlaP) based constructs is constitutive and the signal sequence is provided to direct these proteins to the periplasm. […]

[5] abbreviates: read-out: MIC of ceftazidime alone, no BLI.
[6] abbreviates: no BLI, read-out: Activity (MIC) of Beta-Lactam 5 alone.

As for `CCN1CCN(C(=O)N[C@@H](C(=O)N[C@@H]2C(=O)N3C2SC(C)(C)[C@@H]3C(=O)O)c2ccccc2)C(=O)C1=O` (some centres unmarked) [Piperacillin], the results for the MIC (in test [1]; in test [2]; in the test with S. aureus NB01437 (BLA+)) were over 64 µg/mL, over 64 µg/mL and 64 µg/mL, respectively.

With `C[C@H]1[C@H](NC(=O)/C(=N\OC(C)(C)C(=O)O)c2csc(N)n2)C(=O)N1S(=O)(=O)O` [Aztreonam], the MIC in [3] is over 64 µg/mL.

For `O=C1NC[C@@H]2C[C@@H]3CN(C(=O)N3OS(=O)(=O)[O-])[C@H]12.[Na+]` [Example 1, Sodium (4R,5aS,8aS)-2,8-dioxohexahydro-2H-1,4-methanopyrrolo[3,4-d][1,3]diazepin-3(4H)-yl sulfate], the “MIC of piperacillin in combination with the BLI” value (shortened to “MIC of piperacillin”) in the test on E. coli (OXA-18) (BLI at 2 μg/mL) amounted to 2 µg/mL. In test [4], the “Direct antibacterial activity of the BLI, in words” value was “does not exhibit much direct antibiotic activity”.

For the molecule `C[C@]1(Cn2ccnn2)[C@H](C(=O)O)N2C(=O)C[C@H]2S1(=O)=O` [Tazobactam], in the test on E. coli (OXA-18) (BLI at 4 μg/mL), the “MIC of piperacillin” value was found to be 8 µg/mL.

For `CN1C[C@@H]2C[C@@H]3CN(C(=O)N3OS(=O)(=O)[O-])[C@@H]2C1=O.[Na+]` [Example 2, Sodium (4R,5aS,8aS)-7-methyl-2,8-dioxohexahydro-2H-1,4-methanopyrrolo[3,4-d][1,3]diazepin-3(4H)-yl sulfate], in the test on E. coli (OXA-18) (BLI at 2 μg/mL), the “MIC of piperacillin” value is 4 µg/mL.

With Meropenem, the “MIC of meropenem alone” value is at most 0.06 µg/mL with E. coli (CTX-M-15) (no BLI); 1 µg/mL in the test with E. coli (KPC-2) (E. coli (KPC-2), no BLI); at most 0.06 µg/mL in the test on E. coli (SHV-12) (no BLI); at most 0.06 µg/mL in the test on E. coli (TEM-10) (no BLI); at most 0.06 µg/mL with E. coli (AmpC) (no BLI); at most 0.06 µg/mL in the test with E. coli (OXA-18) (no BLI).

Consider `O=C1[C@@H]2[C@@H](C[C@@H]3CN2C(=O)N3OS(=O)(=O)[O-])CN1C1CC1.[Na+]` [Example 3, Sodium (4R,5aS,8aS)-7-cyclopropyl-2,8-dioxohexahydro-2H-1,4-methanopyrrolo[3,4-d][1,3]diazepin-3(4H)-yl sulfate], for which the “MIC of piperacillin” value in the test on E. coli (OXA-18) (BLI at 2 μg/mL) turned out to be 4 µg/mL.

Consider `CC(C)(O/N=C(\C(=O)N[C@@H]1C(=O)N2C(C(=O)O)=C(C[n+]3ccccc3)CS[C@H]12)c1csc(N)n1)C(=O)O` [Ceftazidime], for which the MIC is 16 µg/mL in the test with E. coli (CTX-M-15) (setting [5]); 4 µg/mL in the test with E. coli (KPC-2) (read-out: MIC of ceftazidime alone); over 64 µg/mL in the test on E. coli (SHV-12) (setting [5]); over 64 µg/mL with E. coli (TEM-10) (setting [5]); 4 µg/mL in the test with E. coli (AmpC) (setting [5]); over 64 µg/mL with E. coli (OXA-18) (setting [5]).

For `NC(=O)[C@@H]1CC[C@@H]2CN1C(=O)N2OS(=O)(=O)O` [Avibactam], the “MIC of piperacillin” value in the test with E. coli (OXA-18) (BLI at 2 μg/mL) came to 2 µg/mL. For the same molecule, the “Direct antibacterial activity of the BLI, in words” value in test [4] is given as “exhibit direct antibacterial activity”.

In the case of `O=C1NCC[C@@H]2C[C@@H]3CN(C(=O)N3OS(=O)(=O)[O-])[C@H]12.[Na+]` [Example 7, Sodium (4R,5aR,9aS)-2,9-dioxooctahydro-1,4-methanopyrido[3,4-d][1,3]diazepin-3(2H)-yl hydrogen sulfate], the “MIC of piperacillin” value with E. coli (AmpC) (BLI at 2 μg/mL) and with E. coli (OXA-18) (BLI at 2 μg/mL) was 8 µg/mL throughout.

`Nc1nc(/C(=N/OC2(C(=O)O)CC2)C(=O)N[C@@H]2C(=O)N(S(=O)(=O)O)[C@@H]2CN2CCOC2=O)cs1` [Beta-Lactam 5]: the MIC with E. coli (CTX-M-15) (setting [6]) is 0.125 µg/mL; with E. coli (KPC-2) (E. coli (KPC-2), no BLI, read-out: Activity (MIC) of Beta-Lactam 5 alone), 0.25 µg/mL; in the test with E. coli (SHV-12) (setting [6]), 0.5 µg/mL; in the test on E. coli (TEM-10) (setting [6]), 2 µg/mL; with E. coli (AmpC) (setting [6]), 0.25 µg/mL; in the test on E. coli (OXA-18) (setting [6]), 0.5 µg/mL.

In the case of `O=C(NC1CCNCC1)[C@@H]1CC[C@@H]2CN1C(=O)N2OS(=O)(=O)O` [Relebactam], the “MIC of piperacillin” value in the test on E. coli (OXA-18) (BLI at 2 μg/mL) is over 32 µg/mL.
